The source made the active and inactive calls. No cut-off for these calls is given here.
Assays:
[1] = test system: HepG2; experiment: Induction of apoptosis in human HepG2 cells assessed as increase in cleaved caspase-9 expression after 24 hrs by Western blot method; assay type: functional, cell-based
[2] = test system: HepG2; experiment: Induction of apoptosis in human HepG2 cells assessed as early apoptotic cells at 4 uM after 24 hrs by Annexin V-APC/7-AAD staining based flow cytometry (reference value: 0.774%); assay type: functional
[3] = test system: HepG2; experiment: Induction of apoptosis in human HepG2 cells assessed as live cells at 4 uM after 24 hrs by Annexin V-APC/7-AAD staining based flow cytometry (reference value: 87%); assay type: functional
[4] = test system: HepG2; experiment: Induction of apoptosis in human HepG2 cells assessed as late apoptotic cells at 8 uM after 24 hrs by Annexin V-APC/7-AAD staining based flow cytometry (reference value: 6.86%); assay type: functional
[5] = target: T1, DNA topoisomerase 1 (Homo sapiens) (UniProt P11387); experiment: Inhibition of DNA topoisomerase-1 (unknown origin) assessed as reduction in enzyme-catalyzed relaxation of pBR322 DNA substrate at 20 uM after 30 mins by ethidium bromide staining based electrophoresis
T1 sequence (whole entry): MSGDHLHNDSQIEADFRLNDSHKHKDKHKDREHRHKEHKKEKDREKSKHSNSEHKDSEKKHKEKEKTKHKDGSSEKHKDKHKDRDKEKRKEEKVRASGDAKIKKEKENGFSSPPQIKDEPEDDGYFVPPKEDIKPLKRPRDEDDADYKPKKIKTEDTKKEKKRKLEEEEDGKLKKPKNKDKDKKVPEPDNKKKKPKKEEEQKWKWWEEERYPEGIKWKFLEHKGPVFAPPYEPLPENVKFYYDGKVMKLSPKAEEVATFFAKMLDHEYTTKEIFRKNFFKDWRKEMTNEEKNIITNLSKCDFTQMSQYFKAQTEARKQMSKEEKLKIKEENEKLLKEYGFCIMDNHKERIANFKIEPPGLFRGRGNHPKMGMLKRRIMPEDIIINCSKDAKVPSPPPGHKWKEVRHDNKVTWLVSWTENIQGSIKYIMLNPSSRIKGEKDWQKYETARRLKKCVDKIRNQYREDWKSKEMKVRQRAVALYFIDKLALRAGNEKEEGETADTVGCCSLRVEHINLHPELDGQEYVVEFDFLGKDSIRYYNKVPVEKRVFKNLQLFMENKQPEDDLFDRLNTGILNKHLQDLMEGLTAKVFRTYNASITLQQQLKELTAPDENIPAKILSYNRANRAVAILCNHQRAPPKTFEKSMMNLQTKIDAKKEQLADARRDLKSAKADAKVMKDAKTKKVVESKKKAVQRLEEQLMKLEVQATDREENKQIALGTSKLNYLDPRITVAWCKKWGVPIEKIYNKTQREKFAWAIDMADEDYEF

[6] = test system: MCF7; experiment: Antiproliferative activity against human MCF7 cells after 48 hrs by MTT assay; assay type: functional, cell-based; conditions: MCF7, 48 h
[7] = target: DNA topoisomerase 2-alpha (Homo sapiens) (UniProt P11388); experiment: Inhibition of DNA topoisomerase-2alpha (unknown origin) assessed as reduction in enzyme-catalyzed relaxation of pBR322 DNA substrate at 20 uM after 30 mins by ethidium bromide staining based electrophoresis
[8] = test system: HepG2; experiment: Induction of apoptosis in human HepG2 cells assessed as live cells at 8 uM after 24 hrs by Annexin V-APC/7-AAD staining based flow cytometry (reference value: 87%); assay type: functional
[9] = test system: HepG2; experiment: Induction of apoptosis in human HepG2 cells assessed as early apoptotic cells at 2 uM after 24 hrs by Annexin V-APC/7-AAD staining based flow cytometry (reference value: 0.774%); assay type: functional
[10] = Antitumor activity against mouse H22-H8D8 cells implanted in ICR mouse assessed as tumor growth inhibition at 5 mg/kg, iv relative to control; assay type: functional; conditions: read-out: TGI
[11] = test system: HepG2; experiment: Induction of apoptosis in human HepG2 cells assessed as increase in Bax/Bcl2 ratio up to 8 uM after 24 hrs by Western blot method; assay type: functional, cell-based
[12] = Antitumor activity against mouse H22-H8D8 cells implanted in ICR mouse assessed as tumor growth inhibition at 10 mg/kg, iv relative to control; assay type: functional; conditions: read-out: TGI
[13] = test system: HepG2; experiment: Upregulation of p53 protein expression in human HepG2 cells after 24 hrs by Western blot method; assay type: functional, cell-based
[14] = test system: HepG2; experiment: Antiproliferative activity against human HepG2 cells after 48 hrs by MTT assay; assay type: functional, cell-based; conditions: HepG2, 48 h
[15] = test system: HepG2; experiment: Induction of apoptosis in human HepG2 cells after 24 hrs by Annexin V-APC/7-AAD staining based flow cytometry; assay type: functional, cell-based
[16] = test system: Mus musculus; experiment: Toxicity in ICR mouse implanted with mouse H22-H8D8 cells assessed as body weight at 5 mg/kg, iv (reference value: 29.89 to 33.78 g); assay type: organism-based; conditions: in vivo
[17] = test system: HepG2; experiment: Cell cycle arrest in human HepG2 cells assessed as accumulation at G2/M phase after 24 hrs by propidium iodide staining based flow cytometry; assay type: functional
[18] = test system: HepG2; experiment: Induction of apoptosis in human HepG2 cells assessed as necrotic cells at 4 uM after 24 hrs by Annexin V-APC/7-AAD staining based flow cytometry (reference value: 5.35%); assay type: functional
[19] = test system: HepG2; experiment: Induction of apoptosis in human HepG2 cells assessed as live cells at 2 uM after 24 hrs by Annexin V-APC/7-AAD staining based flow cytometry (reference value: 87%); assay type: functional
[20] = test system: HepG2; experiment: Induction of apoptosis in human HepG2 cells assessed as increase in cytochrome c release from mitochondria to cytosol up to 8 uM after 24 hrs by Western blot method; assay type: functional, cell-based
[21] = Antitumor activity against mouse H22-H8D8 cells implanted in ICR mouse assessed as tumor growth inhibition at 20 mg/kg, iv relative to control; assay type: functional; conditions: read-out: TGI
[22] = target: DNA topoisomerase 2-alpha (Homo sapiens) (UniProt P11388); experiment: Inhibition of DNA topoisomerase-2alpha (unknown origin) assessed as reduction in enzyme-catalyzed relaxation of pBR322 DNA substrate at 20 to 500 nM after 30 mins by ethidium bromide staining based electrophoresis
[23] = target: T1, DNA topoisomerase 1 (Homo sapiens); experiment: Inhibition of DNA topoisomerase-1 (unknown origin) assessed as reduction in enzyme-catalyzed relaxation of pBR322 DNA substrate at 2.5 to 5 uM after 30 mins by ethidium bromide staining based electrophoresis
[24] = test system: HCT-116; experiment: Antiproliferative activity against human HCT116 cells after 48 hrs by MTT assay; assay type: functional, cell-based; conditions: HCT-116, 48 h
[25] = test system: HepG2; experiment: Cell cycle arrest in human HepG2 cells assessed as accumulation at subG1 phase at 2 to 8 uM after 24 hrs by propidium iodide staining based flow cytometry; assay type: functional
[26] = test system: HepG2; experiment: Upregulation of p21 protein expression in human HepG2 cells after 24 hrs by Western blot method; assay type: functional, cell-based
[27] = test system: HepG2; experiment: Induction of apoptosis in human HepG2 cells assessed as increase in cleaved caspase-3 expression after 24 hrs by Western blot method; assay type: functional, cell-based
[28] = test system: HepG2; experiment: Induction of apoptosis in human HepG2 cells assessed as necrotic cells at 2 uM after 24 hrs by Annexin V-APC/7-AAD staining based flow cytometry (reference value: 5.35%); assay type: functional
[29] = test system: HepG2; experiment: Induction of apoptosis in human HepG2 cells assessed as early apoptotic cells at 8 uM after 24 hrs by Annexin V-APC/7-AAD staining based flow cytometry (reference value: 0.774%); assay type: functional
[30] = test system: HepG2; experiment: Downregulation of cyclin B protein expression in human HepG2 cells after 24 hrs by Western blot method; assay type: functional, cell-based
[31] = test system: HepG2; experiment: Induction of apoptosis in human HepG2 cells assessed as late apoptotic cells at 2 uM after 24 hrs by Annexin V-APC/7-AAD staining based flow cytometry (reference value: 6.86%); assay type: functional
[32] = test system: HepG2; experiment: Induction of apoptosis in human HepG2 cells assessed as late apoptotic cells at 4 uM after 24 hrs by Annexin V-APC/7-AAD staining based flow cytometry (reference value: 6.86%); assay type: functional
[33] = test system: Mus musculus; experiment: Toxicity in ICR mouse implanted with mouse H22-H8D8 cells assessed as body weight at 20 mg/kg, iv (reference value: 29.89 to 33.78 g); assay type: organism-based; conditions: in vivo
[34] = test system: HepG2; experiment: Downregulation of CDK1 protein expression in human HepG2 cells after 24 hrs by Western blot method; assay type: functional, cell-based
[35] = test system: HepG2; experiment: Induction of apoptosis in human HepG2 cells assessed as necrotic cells at 8 uM after 24 hrs by Annexin V-APC/7-AAD staining based flow cytometry (reference value: 5.35%); assay type: functional
[36] = test system: A549; experiment: Antiproliferative activity against human A549 cells after 48 hrs by MTT assay; assay type: functional, cell-based; conditions: A549, 48 h
[37] = test system: Mus musculus; experiment: Toxicity in ICR mouse implanted with mouse H22-H8D8 cells assessed as body weight at 10 mg/kg, iv (reference value: 29.89 to 33.78 g); assay type: organism-based; conditions: in vivo

Sequence of DNA topoisomerase 2-alpha (Homo sapiens) (P11388 whole entry): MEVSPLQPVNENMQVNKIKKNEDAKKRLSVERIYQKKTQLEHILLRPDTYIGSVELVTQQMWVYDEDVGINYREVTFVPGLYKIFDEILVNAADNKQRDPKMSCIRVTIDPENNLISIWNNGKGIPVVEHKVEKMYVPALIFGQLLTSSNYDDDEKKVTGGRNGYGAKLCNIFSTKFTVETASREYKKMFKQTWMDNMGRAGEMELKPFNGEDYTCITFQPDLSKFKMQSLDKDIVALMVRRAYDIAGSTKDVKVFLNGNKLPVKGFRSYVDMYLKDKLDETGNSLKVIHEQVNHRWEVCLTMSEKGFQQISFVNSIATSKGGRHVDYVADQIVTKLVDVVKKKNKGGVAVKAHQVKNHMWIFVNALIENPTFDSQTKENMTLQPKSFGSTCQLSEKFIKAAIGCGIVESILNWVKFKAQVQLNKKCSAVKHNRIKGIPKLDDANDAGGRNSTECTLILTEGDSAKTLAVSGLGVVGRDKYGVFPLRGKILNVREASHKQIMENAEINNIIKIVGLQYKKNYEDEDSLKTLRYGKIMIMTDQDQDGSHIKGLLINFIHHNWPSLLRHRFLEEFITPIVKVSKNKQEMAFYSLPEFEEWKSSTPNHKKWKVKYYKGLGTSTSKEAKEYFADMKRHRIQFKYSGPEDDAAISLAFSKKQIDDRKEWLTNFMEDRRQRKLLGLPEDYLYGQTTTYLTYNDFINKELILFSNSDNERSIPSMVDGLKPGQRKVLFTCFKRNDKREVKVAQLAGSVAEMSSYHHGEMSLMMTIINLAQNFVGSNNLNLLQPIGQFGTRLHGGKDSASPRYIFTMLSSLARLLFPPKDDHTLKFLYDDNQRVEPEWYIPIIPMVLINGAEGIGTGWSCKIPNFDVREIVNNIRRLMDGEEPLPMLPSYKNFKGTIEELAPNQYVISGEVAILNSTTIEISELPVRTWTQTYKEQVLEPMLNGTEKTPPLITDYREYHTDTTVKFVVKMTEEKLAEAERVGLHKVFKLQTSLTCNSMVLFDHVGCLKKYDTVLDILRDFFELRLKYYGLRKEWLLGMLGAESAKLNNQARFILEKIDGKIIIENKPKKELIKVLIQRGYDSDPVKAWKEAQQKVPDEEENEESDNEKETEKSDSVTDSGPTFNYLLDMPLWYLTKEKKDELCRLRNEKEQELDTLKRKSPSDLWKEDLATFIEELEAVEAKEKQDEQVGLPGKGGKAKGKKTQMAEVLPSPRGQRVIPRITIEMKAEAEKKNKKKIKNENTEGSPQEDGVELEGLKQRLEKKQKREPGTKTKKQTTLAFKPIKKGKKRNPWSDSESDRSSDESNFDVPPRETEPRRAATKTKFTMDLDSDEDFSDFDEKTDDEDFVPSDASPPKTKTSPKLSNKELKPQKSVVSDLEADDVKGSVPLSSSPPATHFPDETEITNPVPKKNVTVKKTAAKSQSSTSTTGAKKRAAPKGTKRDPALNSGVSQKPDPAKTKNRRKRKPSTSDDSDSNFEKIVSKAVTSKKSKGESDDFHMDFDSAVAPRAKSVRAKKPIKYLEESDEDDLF

**Q.** For `N#CC1=C(N)Oc2c(N)cc3nc4ccccc4nc3c2C1c1ccc(Cl)c(Cl)c1` (configuration not stated), which Activity [1] is on record?
**A.** Dose-dependent effect

**Q.** And the Activity [2]?
**A.** 8.97%

**Q.** And the Activity [3]?
**A.** 44.7%

**Q.** What about the Activity [4] of the same molecule?
**A.** 53.5%

**Q.** And the inhibition [5]?
**A.** Active

**Q.** And the IC50 [6]?
**A.** 7.3 µM

**Q.** What about the inhibition [7] of the same molecule?
**A.** Active

**Q.** And the Activity [8]?
**A.** 22.5%

**Q.** What about the Activity [9] of the same molecule?
**A.** 3.1%

**Q.** What about the inhibition in vivo at 5 mg/kg [10] of the same molecule?
**A.** 7.78%

**Q.** What about the Activity [11] of the same molecule?
**A.** Active

**Q.** And the inhibition in vivo at 10 mg/kg [12]?
**A.** 68.9%

**Q.** And the Activity [13]?
**A.** Dose-dependent effect

**Q.** And the IC50 [14]?
**A.** 2.1 µM

**Q.** What about the Activity [15] of the same molecule?
**A.** Dose-dependent effect

**Q.** What about the Activity [16] of the same molecule?
**A.** 38 g

**Q.** And the Activity [17]?
**A.** Dose-dependent effect

**Q.** What about the Activity [18] of the same molecule?
**A.** 14.9%

**Q.** And the Activity [19]?
**A.** 80%

**Q.** What about the Activity [20] of the same molecule?
**A.** Active

**Q.** What about the inhibition in vivo at 20 mg/kg [21] of the same molecule?
**A.** 77.8%

**Q.** What about the inhibition [22] of the same molecule?
**A.** Active

**Q.** And the inhibition [23]?
**A.** Active

**Q.** What about the IC50 [24] of the same molecule?
**A.** 8 µM

**Q.** What about the Activity [25] of the same molecule?
**A.** Active

**Q.** And the Activity [26]?
**A.** Dose-dependent effect

**Q.** What about the Activity [27] of the same molecule?
**A.** Dose-dependent effect

**Q.** And the Activity [28]?
**A.** 5.65%

**Q.** And the Activity [29]?
**A.** 3.31%

**Q.** What about the Activity [30] of the same molecule?
**A.** Dose-dependent effect

**Q.** And the Activity [31]?
**A.** 11.2%

**Q.** What about the Activity [32] of the same molecule?
**A.** 31.5%

**Q.** What about the Activity [33] of the same molecule?
**A.** 35.22 g

**Q.** And the Activity [34]?
**A.** Dose-dependent effect

**Q.** What about the Activity [35] of the same molecule?
**A.** 20.7%

**Q.** What about the IC50 [36] of the same molecule?
**A.** 6.8 µM

**Q.** What about the Activity [37] of the same molecule?
**A.** 35.33 g
